In patent US20160287554A1, “Small Molecule Metal-Activated Protein Inhibition” (University of South Florida, priority 2015, published 2016):
Values joined by “and” are separate entries in the source; they are usually repeats but may differ in a detail not shown here. Identical values can stand only once. Each block holds one compound with its values, some of them ahead of it.

Biological target: 20S proteasome (Homo sapiens, UniProt P28074)
Test: 20S proteasome chymotrypsin-like activity assay, cleavage of suc-leu-leu-val-tyr-AMC (fluorescence), with or without copper chloride
Format: biochemical
Conditions: for inhibition against the proteasome: one-dose experiments, 10 μM compound in the presence of 1 μM copper
Source text: Pro-drug compounds, according to embodiments of the invention, include: 3,4-dihydroxybenzoic acid; galloflavin; 2-{[(carbamoylsulfanyl)acetyl]amino}benzoic acid; 6,7-Dihydroxycoumaranone; 3,6-bis(hydroxymethyl)pyridazin-4(1H)-one; and 4′,5,7-trihydroxyisoflavone, as shown in FIG. 1. These compounds, and analogs thereof, can act individually or can be used in combination. These compounds, and similar compounds, are capable of binding copper ions and facilitating inhibition of the proteasome. These compounds, and similar compounds, are safe and efficacious theranostics and/or drugs to detect and/or treat cancers. These compounds are from the NCI Diversity Set 3. Preliminary identification of these compounds as potential Cu-complexes with the proteasome was conducted using an in silico screening method, according to an embodiment of the invention, for example, with graphic representations of the calculated docking of the pro-drugs of FIG. 1 with copper ion and the proteasome, as shown in FIGS. 2-7. The modeling method indicates the potential of candidates as the pro-drugs, which are tested experimentally to confirm their efficiency using an in vitro experimental assay that tests for inhibition of the chymotrypsin-like activity of the 20S proteasome.
A Beckman Coulter Biomek FX^P Lab Automation Workstation was used for automating the assays. A Perkin Elmer EnVision 2102 multilabel plate reader was used to read the plates by fluorescence measurements. Assays were performed in 384 well black Nunc plates. Each compound (2 μl in DMSO), when tested without copper chloride was added to 28 μl of buffer (50 mM Tris at pH 7.6 and 37° C.), with 20 μM, 10 μl 20S proteasome and 10 μl of suc-leu-leu-val-tyr-AMC as the substrate (purchased from Boston Biochem), and the rate of substrate cleavage by 20S proteasome activity was determined. In the presence of copper, the buffer amount was decreased to 25 μl and 3 μl copper chloride was used for chelation with the compound for testing in the presence of copper. To allow chelation of copper to the compound, the plate was allowed to sit for 40 minutes with gentle shaking. The overall volume per well was held at 50 μL. The compounds and substrate were initially dissolved in 100% DMSO, but the final concentration of DMSO per well plate was reduced to less than 2% following subsequent dilutions. Plates were incubated at 37° C. for 2 hours. For dose response curves, the concentrations of copper chloride and a pro-drug compound, were varied to get optimal activity. The plates were read with 340 nm excitation and 460 nm emission using the plate reader. All liquid transfers to the plates were automated using the Biomek workstation.

[1] = NSC 37408 0.01 uM, CuCl2 0.01 uM
[2] = NSC 37408 0.01 uM, CuCl2 0.05 uM
[3] = NSC 37408 0.01 uM, CuCl2 0.1 uM
[4] = NSC 37408 0.01 uM, CuCl2 0.5 uM
[5] = NSC 37408 0.02 uM, CuCl2 0.01 uM
[6] = NSC 37408 0.02 uM, CuCl2 0.05 uM
[7] = NSC 37408 0.02 uM, CuCl2 0.1 uM
[8] = NSC 37408 0.02 uM, CuCl2 0.5 uM
[9] = NSC 37408 0.2 uM, CuCl2 0.01 uM
[10] = NSC 37408 0.2 uM, CuCl2 0.05 uM
[11] = CuCl2 0.01 uM alone (NSC 37408 0 uM)
[12] = CuCl2 0.05 uM alone (NSC 37408 0 uM)
[13] = CuCl2 0.1 uM alone (NSC 37408 0 uM)
[14] = CuCl2 0.5 uM alone (NSC 37408 0 uM)
[15] = CuCl2 1 uM alone (NSC 37408 0 uM)
[16] = CuCl2 10 uM alone (NSC 37408 0 uM)

Compound: 6,7-dihydroxycoumaranone [NSC 37408]
- % Activity (NSC 37408 0.01 uM, CuCl2 0 uM): 112.6213% and 99.65%
- Average % inhibition (NSC 37408 0.01 uM, CuCl2 0 uM): −6.135%
- % Activity [1]: 90.87% and 88.81%
- Average % inhibition [1]: 10.1605%
- % Activity [2]: 86.05% and 85.2009%
- Average % inhibition [2]: 14.38%
- % Activity [3]: 72.84% and 76.28%
- Average % inhibition [3]: 25.44%
- % Activity [4]: 54.66% and 61.76%
- Average % inhibition [4]: 41.79%
- % Activity (NSC 37408 0.01 uM, CuCl2 1 uM): 44.58% and 55.7695%
- Average % inhibition (NSC 37408 0.01 uM, CuCl2 1 uM): 49.82%
- % Activity (NSC 37408 0.01 uM, CuCl2 10 uM): 19.49% and 20.5%
- Average % inhibition (NSC 37408 0.01 uM, CuCl2 10 uM): 80.0042%
- % Activity (NSC 37408 0.02 uM, CuCl2 0 uM): 96.06% and 94.02%
- Average % inhibition (NSC 37408 0.02 uM, CuCl2 0 uM): 4.963%
- % Activity [5]: 88.1% and 90.5198%
- Average % inhibition [5]: 10.69%
- % Activity [6]: 68.1% and 55.31%
- Average % inhibition [6]: 38.29%
- % Activity [7]: 65.88% and 61.48%
- Average % inhibition [7]: 36.32%
- % Activity [8]: 51.0064% and 59.2161%
- Average % inhibition [8]: 44.89%
- % Activity (NSC 37408 0.02 uM, CuCl2 1 uM): 56.05% and 43.65%
- Average % inhibition (NSC 37408 0.02 uM, CuCl2 1 uM): 50.1481%
- % Activity (NSC 37408 0.02 uM, CuCl2 10 uM): 17.83% and 17.5873%
- Average % inhibition (NSC 37408 0.02 uM, CuCl2 10 uM): 82.29%
- % Activity (NSC 37408 0.2 uM, CuCl2 0 uM): 105.3933% and 82.75%
- Average % inhibition (NSC 37408 0.2 uM, CuCl2 0 uM): 5.927%
- % Activity [9]: 94.36% and 76.52%
- Average % inhibition [9]: 14.5582%
- % Activity [10]: 85.2901% and 82.94%
- Average % inhibition [10]: 15.89%
- % Activity (NSC 37408 0.2 uM, CuCl2 0.1 uM): 73.85% and 60.05%
- Average % inhibition (NSC 37408 0.2 uM, CuCl2 0.1 uM): 33.05%
- % Activity (NSC 37408 0.2 uM, CuCl2 0.5 uM): 64.18% and 61.99%
- Average % inhibition (NSC 37408 0.2 uM, CuCl2 0.5 uM): 36.91%
- % Activity (NSC 37408 0.2 uM, CuCl2 1 uM): 56.85% and 54.95%
- Average % inhibition (NSC 37408 0.2 uM, CuCl2 1 uM): 44.1%
- % Activity (NSC 37408 0.2 uM, CuCl2 10 uM): 19.46% and 18.13%
- Average % inhibition (NSC 37408 0.2 uM, CuCl2 10 uM): 81.2011%
- % Activity (NSC 37408 1 uM, CuCl2 0 uM): 103.1804% and 90.54%
- Average % inhibition (NSC 37408 1 uM, CuCl2 0 uM): 3.138%
- % Activity (NSC 37408 1 uM, CuCl2 0.01 uM): 72.59% and 75.01%
- Average % inhibition (NSC 37408 1 uM, CuCl2 0.01 uM): 26.2%
- % Activity (NSC 37408 1 uM, CuCl2 0.05 uM): 66.45% and 67.81%
- Average % inhibition (NSC 37408 1 uM, CuCl2 0.05 uM): 32.87%
- % Activity (NSC 37408 1 uM, CuCl2 0.1 uM): 65.45% and 59.72%
- Average % inhibition (NSC 37408 1 uM, CuCl2 0.1 uM): 37.4167%
- % Activity (NSC 37408 1 uM, CuCl2 0.5 uM): 56.12% and 54.11%
- Average % inhibition (NSC 37408 1 uM, CuCl2 0.5 uM): 44.88%
- % Activity (NSC 37408 1 uM, CuCl2 1 uM): 57.76% and 41.6248%
- Average % inhibition (NSC 37408 1 uM, CuCl2 1 uM): 50.31%
- % Activity (NSC 37408 1 uM, CuCl2 10 uM): 14.11% and 16.23%
- Average % inhibition (NSC 37408 1 uM, CuCl2 10 uM): 84.83%
- % Activity (NSC 37408 2 uM, CuCl2 0 uM): 97.24% and 74.12%
- Average % inhibition (NSC 37408 2 uM, CuCl2 0 uM): 14.32%
- % Activity (NSC 37408 2 uM, CuCl2 0.01 uM): 87.55% and 75.89%
- Average % inhibition (NSC 37408 2 uM, CuCl2 0.01 uM): 18.28%
- % Activity (NSC 37408 2 uM, CuCl2 0.05 uM): 61.5% and 61.91%
- Average % inhibition (NSC 37408 2 uM, CuCl2 0.05 uM): 38.3%
- % Activity (NSC 37408 2 uM, CuCl2 0.1 uM): 62.98% and 55.45%
- Average % inhibition (NSC 37408 2 uM, CuCl2 0.1 uM): 40.79%
- % Activity (NSC 37408 2 uM, CuCl2 0.5 uM): 50.79% and 47.45%
- Average % inhibition (NSC 37408 2 uM, CuCl2 0.5 uM): 50.8784%
- % Activity (NSC 37408 2 uM, CuCl2 1 uM): 41.16% and 35.42%
- Average % inhibition (NSC 37408 2 uM, CuCl2 1 uM): 61.71%
- % Activity (NSC 37408 2 uM, CuCl2 10 uM): 15.32% and 15.04%
- Average % inhibition (NSC 37408 2 uM, CuCl2 10 uM): 84.82%
- % Activity (NSC 37408 20 uM, CuCl2 0 uM): 99.79% and 91.1158%
- Average % inhibition (NSC 37408 20 uM, CuCl2 0 uM): 4.548%
- % Activity (NSC 37408 20 uM, CuCl2 0.01 uM): 71.91% and 89.68%
- Average % inhibition (NSC 37408 20 uM, CuCl2 0.01 uM): 19.21%
- % Activity (NSC 37408 20 uM, CuCl2 0.05 uM): 54.92% and 76.06%
- Average % inhibition (NSC 37408 20 uM, CuCl2 0.05 uM): 34.51%
- % Activity (NSC 37408 20 uM, CuCl2 0.1 uM): 49.04% and 30.46%
- Average % inhibition (NSC 37408 20 uM, CuCl2 0.1 uM): 60.25%
- % Activity (NSC 37408 20 uM, CuCl2 0.5 uM): 36.6% and 25.36%
- Average % inhibition (NSC 37408 20 uM, CuCl2 0.5 uM): 69.02%
- % Activity (NSC 37408 20 uM, CuCl2 1 uM): 25.4789% and 22.77%
- Average % inhibition (NSC 37408 20 uM, CuCl2 1 uM): 75.88%
- % Activity (NSC 37408 20 uM, CuCl2 10 uM): 7.426% and 7.089%
- Average % inhibition (NSC 37408 20 uM, CuCl2 10 uM): 92.74%
- IC50 (dose-response assay, in presence of 100 nM copper (FIG. 13)): 3000 nM
- capacity to inhibit the proteasome compared with copper chloride alone (first round of screening (Table 1), compound complexed with copper): better capacity to inhibit the proteasome than copper chloride alone
- inhibition against the proteasome: superior inhibition
- percent inhibition in the presence of copper versus compound alone (sub-micromolar copper, triplicate (FIG. 13)): dramatic improvement of percent inhibition
- inhibition in the absence of copper ion (various concentrations, no copper (FIG. 10)): little if any inhibition

Compound: [Cl][Cu][Cl] [CuCl2, copper chloride, reference compound]
- % Activity [11]: 116.1267% and 79.27%
- Average % inhibition [11]: 2.302%
- % Activity [12]: 92.35% and 88.54%
- Average % inhibition [12]: 9.555%
- % Activity [13]: 82.9012% and 74.33%
- Average % inhibition [13]: 21.39%
- % Activity [14]: 50.13% and 54.8853%
- Average % inhibition [14]: 47.49%
- % Activity [15]: 65.79% and 56.9%
- Average % inhibition [15]: 38.65%
- % Activity [16]: 21.19% and 16.25%
- Average % inhibition [16]: 81.28%
- EC50 (copper chloride alone, dose response (FIG. 11), read-out: EC50 of inhibitory effect on the % activity of the proteasome): 686 nM
- inhibitory activity of copper absent the pro-drug (sub-micromolar copper concentration (FIG. 13)): no significant inhibitory activity

Compound: O=C(O)c1ccc(O)c(O)c1 [compound 16631, 3,4-dihydroxybenzoic acid]
- inhibition against the proteasome: superior inhibition

Further lines, results first:

- inhibition against the proteasome: superior inhibition
Compound: NC(=O)SCC(=O)Nc1ccccc1C(=O)O [compound 13345, 2-{[(carbamoylsulfanyl)acetyl]amino}benzoic acid]

- inhibition against the proteasome: superior inhibition
Compound: O=c1c(-c2ccc(O)cc2)coc2cc(O)cc(O)c12 [compound 36586, 4′,5,7-trihydroxyisoflavone]

- inhibition against the proteasome: superior inhibition
Compound: O=c1oc2c(cc1O)oc(=O)c1cc(O)c(O)c(O)c12 [compound 107022, galloflavin]

- inhibition against the proteasome: superior inhibition
Compound: O=c1cc(CO)[nH]nc1CO [compound 166900, 3,6-bis(hydroxymethyl)pyridazin-4(1H)-one]
